{
  "source": "paper PMC516463",
  "about": "(Evidence-based Complementary and Alternative Medicine, 2004)",
  "tested_on": "HIV-1",
  "settings": "10 μM, control inhibitor of infection",
  "data": [
    {"compound": "Cc1cn([C@H]2C[C@H](N=[N+]=[N-])[C@@H](CO)O2)c(=O)[nH]c1=O", "note": "[AZT]", "values": [
      {"measurement": "Inhibition of HIV-1 infection of MAGIC-5B cells (in words)", "value": "totally suppressed"}
    ]}
  ]
}
